Activity calls are given as the source filed them. No cut-off for these calls is given here.
How the values were obtained:
Cavia porcellus [1] = species on record: Cavia porcellus; assay: Agonist activity at opioid receptor in electrically stimulated guinea pig ileum at >=50 uM; type: tissue-based
NG108-15 [2] = assay: Agonist activity at opioid receptor in mouse/rat NG108-15 cells assessed by adenylate cyclase assay; type: cell-based
Cavia porcellus [3] = species on record: Cavia porcellus; assay: Agonist activity at opioid receptor in electrically stimulated guinea pig ileum at <50 uM; type: tissue-based
NG108-15 [4] = conditions: 0.5 uM
Description: Antagonist activity at opioid receptor in mouse/rat NG108-15 cells assessed as reversal of morphine-induced inhibition of adenylate cyclase activity at 0.5 uM

Cavia porcellus [5] = species on record: Cavia porcellus; conditions: Ileum, 10 nM

## C=CCN1CC[C@@]23c4c5ccc(O)c4O[C@@H]2C(=O)CC[C@]3(O)[C@@H]1C5
Cavia porcellus [1]
  Activity: inactive
NG108-15 [2]
  Activity: inactive
Cavia porcellus [3]
  Activity: inactive

## C=CCN1CC[C@]23c4c5ccc(O)c4O[C@H]2C(=O)CC[C@@]3(O)[C@H]1C5
NG108-15 [4]
  inhibition: Active
Cavia porcellus [5]
  inhibition: Active
